Each structure is given as a SMILES string.

PI3Kβ, sequence (P42338 whole entry): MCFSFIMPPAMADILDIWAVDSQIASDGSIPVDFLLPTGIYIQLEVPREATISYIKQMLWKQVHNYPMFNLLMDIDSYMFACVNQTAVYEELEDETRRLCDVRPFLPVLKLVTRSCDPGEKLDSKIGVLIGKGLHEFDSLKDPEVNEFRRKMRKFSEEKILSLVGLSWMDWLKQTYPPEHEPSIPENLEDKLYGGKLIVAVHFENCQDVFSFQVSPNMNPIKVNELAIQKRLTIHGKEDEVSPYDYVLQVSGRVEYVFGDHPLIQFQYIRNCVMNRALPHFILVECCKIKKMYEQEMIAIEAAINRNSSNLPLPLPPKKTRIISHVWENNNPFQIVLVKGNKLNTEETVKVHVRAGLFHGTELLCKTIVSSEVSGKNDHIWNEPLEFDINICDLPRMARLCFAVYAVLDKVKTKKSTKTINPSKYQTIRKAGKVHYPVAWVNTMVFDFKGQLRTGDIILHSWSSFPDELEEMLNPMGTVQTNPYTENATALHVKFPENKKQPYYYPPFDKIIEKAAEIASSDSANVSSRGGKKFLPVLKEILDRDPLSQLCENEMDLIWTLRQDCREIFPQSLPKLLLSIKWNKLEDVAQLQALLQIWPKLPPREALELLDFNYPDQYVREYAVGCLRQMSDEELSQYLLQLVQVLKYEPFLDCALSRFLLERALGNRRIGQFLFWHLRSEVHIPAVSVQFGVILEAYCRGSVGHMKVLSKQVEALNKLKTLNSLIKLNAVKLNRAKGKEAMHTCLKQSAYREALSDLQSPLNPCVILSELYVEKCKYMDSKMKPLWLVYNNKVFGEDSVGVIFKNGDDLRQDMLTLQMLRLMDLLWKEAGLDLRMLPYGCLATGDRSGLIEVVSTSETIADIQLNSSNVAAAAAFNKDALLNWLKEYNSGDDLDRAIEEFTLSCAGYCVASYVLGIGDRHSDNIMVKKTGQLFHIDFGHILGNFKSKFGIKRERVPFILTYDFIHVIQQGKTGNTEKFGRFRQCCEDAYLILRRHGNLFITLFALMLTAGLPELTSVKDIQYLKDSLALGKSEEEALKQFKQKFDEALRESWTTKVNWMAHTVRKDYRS
PI3Kβ, sequence (P27986 whole entry partner): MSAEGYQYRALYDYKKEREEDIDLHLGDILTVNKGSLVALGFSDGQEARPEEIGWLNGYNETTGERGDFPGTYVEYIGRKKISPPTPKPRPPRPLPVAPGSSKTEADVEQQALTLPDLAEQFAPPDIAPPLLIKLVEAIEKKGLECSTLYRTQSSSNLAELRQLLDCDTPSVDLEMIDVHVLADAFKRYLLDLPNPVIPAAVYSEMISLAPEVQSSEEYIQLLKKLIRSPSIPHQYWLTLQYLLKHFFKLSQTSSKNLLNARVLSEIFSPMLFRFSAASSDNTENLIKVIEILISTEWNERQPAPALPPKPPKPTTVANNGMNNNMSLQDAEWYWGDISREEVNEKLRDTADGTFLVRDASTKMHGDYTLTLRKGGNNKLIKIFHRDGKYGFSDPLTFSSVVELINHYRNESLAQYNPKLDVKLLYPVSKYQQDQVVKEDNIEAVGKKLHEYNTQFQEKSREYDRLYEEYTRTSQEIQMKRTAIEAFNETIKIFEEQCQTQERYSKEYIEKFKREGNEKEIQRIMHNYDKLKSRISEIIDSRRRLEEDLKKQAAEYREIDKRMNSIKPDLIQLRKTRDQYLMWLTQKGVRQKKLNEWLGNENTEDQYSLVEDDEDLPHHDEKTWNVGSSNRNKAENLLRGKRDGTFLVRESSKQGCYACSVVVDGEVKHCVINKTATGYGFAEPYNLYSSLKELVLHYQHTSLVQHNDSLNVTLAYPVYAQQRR

For this experiment, the target named is PI3Kβ (Homo sapiens (Human), UniProt P42338). Nature of the experiment: In vitro enzyme inhibition assay (Kinase Glo based enzyme activity assay). It counts as biochemical. The following applies: Test (a), human recombinant enzyme; read-out: PI3Kβ inhibition, IC50. The procedure:
(a) In Vitro Enzyme Inhibition Assay
The inhibition of PI3Kβ, PI3Kα, PI3Kγ and PI3Kδ was evaluated in a Kinase Glo based enzyme activity assay using human recombinant enzymes. The assay measures depletion of ATP after incubation with enzyme, PIP2 and ATP plus compound. ATP at the end of the reaction is detected by addition of Kinase Glo reagent, in this the Ultra Glo™ luciferase (Promega) uses the ATP as a substrate to catalyze the mono-oxygenation of luciferin and the generation of light. A direct relationship exists between the luminescence measured with the Kinase-Glo Plus Reagent and the amount of ATP remaining in a completed kinase reaction and luminescence is inversely related to kinase activity. Twelve different compound concentrations were tested and raw data from the inhibition of PI3 Kb, PI3Kα, PI3Kγ and PI3Kδ was plotted versus inhibitor concentration.
Compounds in 100% DMSO were added to assay plates by acoustic dispensing. PI3Kβ was added in a Tris buffer (50 mM Tris pH7.4, 0.05% CHAPS, 2.1 mM DTT, and 10 mM MgCl2) and allowed to preincubate with compound for 20 minutes prior to addition of substrate solution containing PIP2 and ATP. The enzyme reaction was stopped after 80 minutes by the addition of Kinase Glo detection solution. Plates were left for 30 minutes at room temperature then read on a Pherastar Instrument (Luminescence ATP 384 program) setting gain on max well. The final concentration of DMSO, ATP and PIP2 in the assay were, 1%, 80 μM, and 80 μM respectively.
IC50 values were calculated using a log curve fitting to a non-linear regression package, fitting raw data to inhibitor concentration.
In general terms: Kinase-Glo reads ATP consumption through a luciferase reaction.
What is called IC50 is the concentration that gives 50% inhibition. As to `CC(Nc1cc(F)cc(F)c1)c1cc(C(=O)N2CCC[C@@H]2CO)cc2c(=O)cc(N3CCOCC3)oc12` (stereo partly drawn) [Example 4.20, 8-(1-(3,5-difluorophenylamino)ethyl)-6-((R)-2-(hydroxymethyl)pyrrolidine-1-carbonyl)-2-morpholino-4H-chromen-4-one], the IC50 turned out to be 5 nM. As for `CC(c1cc(C(=O)N2CCC(O)CC2)cc2c(=O)cc(N3CCO[C@H](C)C3)oc12)N(C)c1cc(F)cc(F)c1` (stereo partly drawn) [Example 10.03, 8-(1-((3,5-difluorophenyl)(methyl)amino)ethyl)-6-(4-hydroxypiperidine-1-carbonyl)-2-((R)-2-methylmorpholino)-4H-chromen-4-one], the figure is 9 nM; as for `CC(Nc1cc(F)cc(F)c1)c1cc(C(=O)N2CCN(C)CC2)cc2c(=O)cc(N3CCOCC3)oc12` (centres unmarked) [Example 4.03, 8-(1-(3,5-difluorophenylamino)ethyl)-6-(4-methylpiperazine-1-carbonyl)-2-morpholino-4H-chromen-4-one], 4 nM. In the case of `CC(Nc1cccc(Cl)c1F)c1cc(C(=O)N(C)C)cc2c(=O)cc(N3CCOCC3)oc12` (single isomer, unassigned) [Example 3.04a, 8-(1-(3-chloro-2-fluorophenylamino)ethyl)-N,N-dimethyl-2-morpholino-4-oxo-4H-chromene-6-carboxamide] it was 2250 nM. For the compound `CC(c1cc(C(=O)N(C)CCO)cc2c(=O)cc(N3CCO[C@H](C)C3)oc12)N(C)c1cc(F)cc(F)c1` (stereo partly drawn) [Example 10.02, 8-(1-((3,5-difluorophenyl)(methyl)amino)ethyl)-N-(2-hydroxyethyl)-N-methyl-2-((R)-2-methylmorpholino)-4-oxo-4H-chromene-6-carboxamide], the IC50 was 11 nM. `C#Cc1cc(F)cc(N(C)C(C)c2cc(C(=O)N(C)C)cc3c(=O)cc(N4CCOCC4)oc23)c1` (centres unmarked) [Example 3.41, 8-(1-((3-ethynyl-5-fluorophenyl)(methyl)amino)ethyl)-N,N-dimethyl-2-morpholino-4-oxo-4H-chromene-6-carboxamide]: the IC50 came out at 14 nM. For `CC(Nc1cc(F)ccc1C#N)c1cc(C(=O)N(C)C)cc2c(=O)cc(N3CCOCC3)oc12` (centres unmarked) [Example 3.35, 8-(1-(2-cyano-5-fluorophenylamino)ethyl)-N,N-dimethyl-2-morpholino-4-oxo-4H-chromene-6-carboxamide], the IC50 stood at 31 nM. As for `CC(Nc1cc(F)cc(F)c1)c1cc(C(=O)N(C)CCO)cc2c(=O)cc(N3CCOCC3)oc12` (centres unmarked) [Example 4.07, 8-(1-(3,5-difluorophenylamino)ethyl)-N-(2-hydroxyethyl)-N-methyl-2-morpholino-4-oxo-4H-chromene-6-carboxamide], the figure is 4 nM. Turning to `Cc1ccc(F)cc1NC(C)c1cc(C(=O)N(C)C)cc2c(=O)cc(N3CCOCC3)oc12` (centres unmarked) [Example 3.22, 8-(1-(5-fluoro-2-methylphenylamino)ethyl)-N,N-dimethyl-2-morpholino-4-oxo-4H-chromene-6-carboxamide], the IC50 came out at 4 nM. In the case of `CC(Nc1cc(F)ccc1F)c1cc(C(=O)N(C)C)cc2c(=O)cc(N3CCOCC3)oc12` (centres unmarked) [Example 3.15, 8-(1-(2,5-difluorophenylamino)ethyl)-N,N-dimethyl-2-morpholino-4-oxo-4H-chromene-6-carboxamide], the IC50 turned out to be 10 nM.

Take `CC(Nc1cccc(Cl)c1F)c1cc(C(=O)N(C)C)cc2c(=O)cc(N3CCOCC3)oc12` (single isomer, unassigned) [Example 3.04b, 8-(1-(3-chloro-2-fluorophenylamino)ethyl)-N,N-dimethyl-2-morpholino-4-oxo-4H-chromene-6-carboxamide]: the IC50 was 3 nM. Regarding `CC(Nc1ccccc1)c1cc(C(=O)NCCN(C)C)cc2c(=O)cc(N3CCOCC3)oc12` (centres unmarked) [Example 1.02, N-(2-(dimethylamino)ethyl)-2-morpholino-4-oxo-8-(1-(phenylamino)ethyl)-4H-chromene-6-carboxamide], the IC50 is 2 nM. For the compound `CC(Nc1cccc(Cl)c1F)c1cc(C(=O)N2CCC(O)CC2)cc2c(=O)cc(N3CCOCC3)oc12` (centres unmarked) [Example 2.06, 8-(1-(3-chloro-2-fluorophenylamino)ethyl)-6-(4-hydroxypiperidine-1-carbonyl)-2-morpholino-4H-chromen-4-one], the IC50 stood at 6 nM. Consider `CCN(C)C(=O)c1cc(C(C)Nc2cc(F)cc(F)c2)c2oc(N3CCOCC3)cc(=O)c2c1` (centres unmarked) [Example 4.11, 8-(1-(3,5-difluorophenylamino)ethyl)-N-ethyl-N-methyl-2-morpholino-4-oxo-4H-chromene-6-carboxamide], for which the IC50 is 2 nM. In the case of `CC(Nc1ccc(F)c(Cl)c1)c1cc(C(=O)N(C)CCO)cc2c(=O)cc(N3CCOCC3)oc12` (centres unmarked) [Example 2.04, 8-(1-(3-chloro-4-fluorophenylamino)ethyl)-N-(2-hydroxyethyl)-N-methyl-2-morpholino-4-oxo-4H-chromene-6-carboxamide] it was 4 nM. In the case of `CC(Nc1cc(F)ccc1Cl)c1cc(C(=O)N(C)C)cc2c(=O)cc(N3CCOCC3)oc12` (centres unmarked) [Example 3.26, 8-(1-(2-chloro-5-fluorophenylamino)ethyl)-N,N-dimethyl-2-morpholino-4-oxo-4H-chromene-6-carboxamide] it was 4 nM.

For the compound `CC(c1cc(C(=O)N2CCC[C@@H]2CO)cc2c(=O)cc(N3CCOCC3)oc12)N(C)c1cc(F)cc(F)c1` (stereo partly drawn) [Example 5.03, 8-(1-((3,5-difluorophenyl)(methyl)amino)ethyl)-6-((R)-2-(hydroxymethyl)pyrrolidine-1-carbonyl)-2-morpholino-4H-chromen-4-one], the IC50 is 7 nM. As to `CC(c1cc(C(=O)N2CCC(O)C2)cc2c(=O)cc(N3CCOCC3)oc12)N(C)c1cc(F)cc(F)c1` (centres unmarked) [Example 5.02, 8-(1-((3,5-difluorophenyl)(methyl)amino)ethyl)-6-(3-hydroxypyrrolidine-1-carbonyl)-2-morpholino-4H-chromen-4-one], the IC50 was found to be 7 nM. In the case of `COc1ccc(C#N)cc1NC(C)c1cc(C(=O)N(C)C)cc2c(=O)cc(N3CCOCC3)oc12` (centres unmarked) [Example 3.25, 8-(1-(5-cyano-2-methoxyphenylamino)ethyl)-N,N-dimethyl-2-morpholino-4-oxo-4H-chromene-6-carboxamide] it was 212 nM; in that of `CC(Nc1cc(F)cc(F)c1)c1cc(C(=O)N2CC[C@H](O)C2)cc2c(=O)cc(N3CCOCC3)oc12` (single isomer, unassigned) [Example 2.08], 7 nM; in that of `CC(Nc1cc(F)cc(F)c1)c1cc(C(=O)N2CCSCC2)cc2c(=O)cc(N3CCOCC3)oc12` (centres unmarked) [Example 4.05, 8-(1-(3,5-difluorophenylamino)ethyl)-2-morpholino-6-(thiomorpholine-4-carbonyl)-4H-chromen-4-one], 8 nM.

For the compound `CC(Nc1ccc(F)c(F)c1)c1cc(C(=O)N(C)C)cc2c(=O)cc(N3CCOCC3)oc12` (single isomer, unassigned) [Example 3.03b, 8-(1-(3,4-difluorophenylamino)ethyl)-N,N-dimethyl-2-morpholino-4-oxo-4H-chromene-6-carboxamide], the IC50 was determined as 3 nM. As for `Cc1cc(F)cc(NC(C)c2cc(C(=O)N(C)C)cc3c(=O)cc(N4CCOCC4)oc23)c1` (centres unmarked) [Example 3.16, 8-(1-(3-fluoro-5-methylphenylamino)ethyl)-N,N-dimethyl-2-morpholino-4-oxo-4H-chromene-6-carboxamide], the figure is 5 nM.

Take `COCCN(C)C(=O)c1cc(C(C)Nc2cc(F)cc(F)c2)c2oc(N3CCOCC3)cc(=O)c2c1` (centres unmarked) [Example 4.24, 8-(1-(3,5-difluorophenylamino)ethyl)-N-(2-methoxyethyl)-N-methyl-2-morpholino-4-oxo-4H-chromene-6-carboxamide]: the IC50 came to 4 nM. As to `CNC(=O)c1cc(C(C)Nc2cc(F)cc(F)c2)c2oc(N3CCOCC3)cc(=O)c2c1` (centres unmarked) [Example 4.22, 8-(1-(3,5-difluorophenylamino)ethyl)-N-methyl-2-morpholino-4-oxo-4H-chromene-6-carboxamide], the IC50 is 4 nM. In the case of `CC(c1cc(C(=O)N2CCC(O)CC2)cc2c(=O)cc(N3CCOCC3)oc12)N(C)c1cc(F)cc(F)c1` (centres unmarked) [Example 5.01, 8-(1-((3,5-difluorophenyl)(methyl)amino)ethyl)-6-(4-hydroxypiperidine-1-carbonyl)-2-morpholino-4H-chromen-4-one], the IC50 came to 8 nM. `CC(Nc1cc(F)cc(F)c1)c1cc(C(=O)N2CCCOCC2)cc2c(=O)cc(N3CCOCC3)oc12` (centres unmarked) [Example 4.25, 8-(1-(3,5-difluorophenylamino)ethyl)-2-morpholino-6-(1,4-oxazepane-4-carbonyl)-4H-chromen-4-one]: the IC50 came out at 5 nM. As for `CC(Nc1cc(F)cc(F)c1)c1cc(C(=O)N(C)C)cc2c(=O)cc(N3CCO[C@H](C)C3)oc12` (single isomer, unassigned) [Example 9.01b], the IC50 stood at 3 nM. In the case of `CC(Nc1cc(F)cc(F)c1F)c1cc(C(=O)N(C)C)cc2c(=O)cc(N3CCOCC3)oc12` (single isomer, unassigned; (-)) [Example 3.13b, (−)-N,N-dimethyl-2-morpholino-4-oxo-8-(1-(2,3,5-trifluorophenylamino)ethyl)-4H-chromene-6-carboxamide] it was 4 nM.

For the origin of these results see patent publication US8673906B2, “Chromenone derivatives” (AstraZeneca AB, priority 2010, dated 2014).
